IC50 data for one molecule are collected here from ChEMBL document CHEMBL5726270, “1-pyrazolyl-3-(4-((2-anilinopyrimidin-4-yl)oxy)napththalen-1-yl) ureas as P38 MAP knase inhibitors” (2017).

The experiment addresses T1, Mitogen-activated protein kinase 12 (Homo sapiens, UniProt P53778).
T1 sequence (P53778 whole entry): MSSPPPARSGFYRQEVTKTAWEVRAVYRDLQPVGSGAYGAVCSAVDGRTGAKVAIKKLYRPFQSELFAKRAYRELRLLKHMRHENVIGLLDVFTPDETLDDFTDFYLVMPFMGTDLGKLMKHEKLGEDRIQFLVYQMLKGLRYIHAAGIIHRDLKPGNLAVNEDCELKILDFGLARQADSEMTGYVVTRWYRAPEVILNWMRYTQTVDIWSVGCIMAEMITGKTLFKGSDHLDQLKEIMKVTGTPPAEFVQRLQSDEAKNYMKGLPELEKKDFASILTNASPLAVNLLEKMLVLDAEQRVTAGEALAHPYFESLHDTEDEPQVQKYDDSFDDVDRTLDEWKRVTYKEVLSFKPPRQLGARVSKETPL
The experiment in a line: p38 MAPKγ Enzyme Inhibition: The inhibitory activities of compounds of the invention against p38MAPKγ (MAPK12: Invitrogen), were evaluated in a similar fashion to that described hereinabove. The enzyme (800 ng/mL, 2.5 μL) was incubated with the test compound (2.5 μL at either 4 μg/mL, 0.4 μg/mL, 0.04 μg/mL, or 0.004 μg/mL) for 2 hr at RT. The FRET peptides (8 μM, 2.5 μL), and appropriate ATP solution (2.5 μL, 400 μM) was then added to the enzymes/compound mixtures and incubated for 1 hr. Development reagent (protease, 5 μL) was added for 1 hr prior to detection in a fluorescence microplate reader (Varioskan® Flash, Thermo Scientific).

SMILES strings stand for the structures. A value given as a limit tells only on which side of the number the result lay.

In general, IC50 refers to the concentration that inhibits the measured activity by half. As to `Cc1ccc(-n2nc(C(C)(C)C)cc2NC(=O)Nc2ccc(Oc3ccnc(Nc4ccccc4Cl)n3)c3ccccc23)cc1`, the 50% inhibitory concentration (IC50) was more than 15.1 µM.
